In article PMC6949133, “Application of a novel regulatable Cre recombinase system to define the role of liver and gut metabolism in drug oral bioavailability” (The Biochemical journal, 2015):

Key:
[1] = In vivo pharmacokinetics of probe drugs in WT and ERL (POR-deleted) mice, blood LC-MS/MS; details: for Cl / Cmax: mean ± S.D., n=3; for Cmax: po
Description: WT and ERL mice (n = 3) were pre-treated with corn oil or 3MC (4 or 40 mg/kg). A single dose of midazolam (5 mg/kg p.o.), or nelfinavir (50 mg/kg p.o.) or paroxetine (10 mg/kg p.o.) was administered on day 14 after 3MC treatment. Whole blood (10 μl) was taken from the tail vein at timed intervals after drug administration and transferred into a tube containing heparin (10 μl, 15 IU/ml).
For midazolam analysis, internal standard solution (10 μl; 500 ng of caffeine and 500 ng of resorpine) was added and proteins were precipitated using methanol (75 μl), followed by 8% sulfosalicylic acid (55 μl). Samples were mixed for 1 min and centrifuged at 13 000 g for 5 min. The supernatant was analysed for midazolam and the two internal standards by LC–MS/MS, as described previously. Standard curves were constructed by spiking blank blood samples with known amounts of midazolam. Extraction and protein precipitation were carried out as outlined above for the test samples.
For nelfinavir and paroxetine analysis, mouse blood extraction was performed by a method based on protein precipitation using acetonitrile containing sulfadimethoxine (100 ng/ml) as internal standard. Samples were vortex mixed for 1 min followed by centrifugation at 2800 g for 10 min. Supernatants were analysed by UPLC–MS/MS using a Xevo TQs mass spectrometer (Waters). Nelfinavir, paroxetine and sulfadimethoxine were separated on an Acquity UPLC BEH C18 column (1.7 μm particle size, 50 × 2.1 mm i.d.) by gradient elution with acetonitrile and water at a flow rate 0.6 ml/min. The cycle time of each analysis was 3 min. Matrix effects were assessed by dilution. Quantification of the analytes was performed in electrospray positive ionization mode using multiple reaction monitoring.
Pharmacokinetic parameters were calculated using WinNonLin software, version 3.1. A simple non-compartmental model was used to calculate the area under the curve (AUC), terminal half-life, Cmax and clearance. Statistical analysis of pharmacokinetic data was carried out using Student’s t tests.

[2] = system: POR; assay: POR expression by Western blot/densitometry in tissues of ERL mice after Cyp1a1 inducer; format: in vivo, mouse
Description: (§1) Single doses of βNF (80 mg/kg body weight as a suspension in corn oil) were administered intraperitoneally (i.p.). Doses of 3MC between 0.5 and 40 mg/kg body weight (single injections) were administered i.p. in corn oil; in some experiments, three daily doses were administered, as detailed in the Figure legends. Mice were killed at the same time of day by a rising concentration of CO2 9 or 14 days after dosing and the following tissues removed and snap-frozen in liquid nitrogen: liver, lung, kidney, small intestine, large intestine, spleen and skin. Samples were then stored at − 80°C until processing for sub-cellular fractions.
Microsomal fractions were prepared as described previously and stored at − 70°C until required. Microsomal protein concentrations were determined using the Bio-Rad Protein Assay Reagent (Bio-Rad Laboratories) and Western blot analysis was preformed as described previously using polyclonal antisera to rat P450s and POR [27, 28]. Immunoreactive proteins were detected using horseradish peroxidase (HRP)-conjugated polyclonal goat anti-rabbit, anti-mouse or anti-sheep immunoglobulin secondary antibodies, as appropriate (Dako). Bands were visualized using Immobilon™ chemiluminescent HRP-conjugated substrate (Millipore) and a FUJIFILM LAS-3000 mini imaging system (Fujifilm UK.). Densitometric analysis was performed using Multi Gauge V2.2 software (Fujifilm UK).

[3] = system: P450; assay: P450-mediated substrate turnover in liver of treated ERL mice; format: in vivo, mouse; details: 3MC 40 mg/kg, n=6
Description: (§2) The low levels of cytochrome c reduction detected in the small intestine were further decreased (by 78%) in ERL animals treated with 40 mg/kg 3MC (36.2 ± 15.6 compared with 8.2 ± 3.3 nmol cytochrome c reduced/min/mg respectively, n = 3, mean + S.D., P < 0.01). No P450 activity was detected in small intestinal microsomes from either WT or ERL animals.

[4] = Tolerability and gross liver phenotype of ERL mice after inducer dosing; format: in vivo, mouse
Description: as §1
The effects of a single dose of the polycyclic aromatic hydrocarbon AhR ligand βNF (80 mg/kg i.p.) on ERL mice were investigated in initial range-finding experiments (Figure 2A). Liver and small intestine tissues were harvested 9 or 14 days after dosing. […] On post mortem examination, βNF treated ERL mice had pale, mottled, enlarged livers which weighed approximately 60% more than those of either corn oil treated ERL mice or βNF treated WT animals. This phenotype is characteristic of POR deletion and is also observed in HRN and RCN animals. The effect on POR expression in the ERL liver and small intestine of a single dose of βNF (80 mg/kg i.p.) was similar to that observed in RCN mice following four daily doses (compare Figure 2A with Figure 1 of Finn et al.).
Both ERL and WT animals lost weight in response to this treatment.

[5] = system: POR; assay: POR activity in microsomes of treated ERL mice, cytochrome c reduction; format: in vivo, mouse
Description: as §2

[6] = system: PhIP-DNA adducts in the colon; design: method as in PMID 21940903; details: RCN mice dosed orally with PhIP 2 weeks after 3MC, compared with PhIP alone; cited from earlier work
[7] = liver and gut POR deletion compared with WT/control
[8] = liver only POR deletion relative to control

## Fc1ccc([C@@H]2CCNC[C@H]2COc2ccc3c(c2)OCO3)cc1 [Paroxetine, paroxetine]
[1]; ERL (Por^lox/lox/Cre^Cyp1a1-KI), control: WT (Por^lox/lox), mouse, in vivo
  increase in half-life: 3.5 fold
[1]; mouse, in vivo
  change in Cmax: essentially unchanged
  decrease in clearance: ~ 3 fold
  increase in AUC: 1.5 fold

## Cc1ncc2n1-c1ccc(Cl)cc1C(c1ccccc1F)=NC2 [Midazolam, midazolam]
[1]; Control (WT + corn oil), single p.o. dose nelfinavir 50 mg/kg, paroxetine 10 mg/kg or midazolam 5 mg/kg
  Cl: 113 ± 35 mL/min/kg
[1]; ERL (Por^lox/lox/Cre^Cyp1a1-KI), mouse, in vivo, Liver and gut null (ERL + 3MC 40 mg/kg, day 14), single p.o. dose nelfinavir 50, paroxetine 10 or midazolam 5 mg/kg
  Cmax: 4460 ± 1530 ng/mL
[1]; ERL (Por^lox/lox/Cre^Cyp1a1-KI), mouse, in vivo, Liver null (ERL + 3MC 4 mg/kg, day 14), single p.o. dose nelfinavir 50, paroxetine 10 or midazolam 5 mg/kg
  Cmax: 1850 ± 340 ng/mL
[1]; Liver and gut null (ERL + 3MC 40 mg/kg, day 14), single p.o. dose nelfinavir 50, paroxetine 10 or midazolam 5 mg/kg
  Cl: 4.3 ± 0.9^••◦ ml/min/kg
[1]; Liver null (ERL + 3MC 4 mg/kg, day 14), single p.o. dose nelfinavir 50, paroxetine 10 or midazolam 5 mg/kg
  Cl: 13 ± 5 mL/min/kg
[1]; WT (Por^lox/lox), mouse, in vivo, Control (WT + corn oil), single p.o. dose nelfinavir 50 mg/kg, paroxetine 10 mg/kg or midazolam 5 mg/kg
  Cmax: 610 ± 110 ng/mL
[1]; [7]
  increase in AUC: 22.9 fold
  increase in Cmax: 7.3 fold
  increase in half-life: 1.6 fold
[1]; liver and gut POR deletion relative to control
  decrease in clearance: 26.3 fold
[1]; [8]
  decrease in clearance: 9 fold
  increase in AUC: 9 fold
  increase in Cmax: 3 fold

## Cc1ccc2cc3c(ccc4ccccc43)c3c2c1CC3 [3MC, 3-methylcholanthrene]
[2]; ERL mice, 3MC 40 mg/kg i.p., results not shown
  residual hepatic POR expression (densitometric quantification): < 4%
[2]; ERL mice, i.p.
  single dose required for knockdown in both liver and small intestine: 20 to 40 mg/kg
[2]; ERL mice, i.p., liver only
  single dose for knockdown of hepatic POR expression: 4 mg/kg
[2]; ERL mice, three daily doses of 3MC 40 mg/kg/day i.p., harvested 14 days after initial dose
  POR knockdown in large intestine: 50%
[2]; ERL vs RCN animals (ref 20)
  dose needed to knockdown POR in liver of ERL mice, lower than in RCN animals: 10 fold
[3]
  reduction in P450-mediated turnover of 7-benzyloxy-4-(trifluoromethyl)-coumarin: 95%
  reduction in P450-mediated turnover of methoxyresorufin: 70%
[4]; single dose 3MC 40 mg/kg i.p., post mortem
  increase in liver weight: 60–90%
[5]; ERL animals treated with 40 mg/kg 3MC
  decrease of cytochrome c reduction in small intestine: 78%
[5]; livers from ERL mice 14 days after 3MC 40 mg/kg
  hepatic POR activity as % of WT: approximately 4%
[5]; livers from ERL mice 14 days after 3MC 40 mg/kg, n=3, mean ± S.D., WT 60.3 ± 20.8
  hepatic POR activity (cytochrome c reduction): 2.2 ± 1.9 nmol cytochrome c reduced/min/mg
[5]; small intestine of ERL animals treated with 40 mg/kg 3MC, n=3, mean ± S.D., comparator 36.2 ± 15.6
  cytochrome c reduction in small intestine: 8.2 ± 3.3 nmol cytochrome c reduced/min/mg

## Cn1c(N)nc2ncc(-c3ccccc3)cc21 [PhIP, 2-amino-1-methyl-6-phenylimidazo[4,5-b]pyridine]
[6]
  reduction of adduct formation in the colon: 50%

## O=c1cc(-c2ccccc2)oc2ccc3ccccc3c12 [βNF, β-naphthoflavone]
[4]; single dose βNF 80 mg/kg i.p.
  body weight loss over the course of the treatment: 2 to 4 g
[4]; single dose βNF 80 mg/kg i.p., 9 or 14 days
  increase in liver weight vs corn oil treated ERL or βNF treated WT: approximately 60%
